{"source": "paper PMC4332848", "about": "(Clinical cancer research : an official journal of the …, 2013)", "key": {"AML / acute leukemias": {"tested_on": "AML / acute leukemias", "settings": "cited from earlier work"}, "[1]": {"tested_on": "human leukemia cell lines", "settings": "cited from earlier work"}, "Buccal mucosa cells": {"tested_on": "Buccal mucosa cells", "experiment": "TRAIL death receptor protein expression, pre vs on vorinostat", "type": "in vivo, human"}, "[2]": {"tested_on": "patients with poor-risk or advanced acute leukemias"}, "BCRP [3]": {"tested_on": "BCRP", "experiment": "BCRP transcripts in patient leukemic blasts", "type": "in vivo, human", "settings": "paired t test, 8 paired samples"}, "HL-60/W [4]": {"tested_on": "HL-60/W", "experiment": "Control studies for DR or DcR expression", "type": "cell-based, human"}, "Leukemia blast cells": {"tested_on": "Leukemia blast cells", "experiment": "TRAIL death and decoy receptor protein expression, pre vs on vorinostat", "type": "in vivo, human"}, "leukemic blasts": {"tested_on": "leukemic blasts", "experiment": "Cell-cycle phase distribution, pre vs on vorinostat", "type": "in vivo, human", "settings": "Mean"}, "buccal mucosal cells": {"tested_on": "buccal mucosal cells", "experiment": "Cell-cycle phase distribution, pre vs on vorinostat", "type": "in vivo, human"}, "HL-60/W [5]": {"tested_on": "HL-60/W", "settings": "HL-60 cells, 24-hour exposure to 1 μmol/L vorinostat; cited from earlier work"}, "[6]": {"experiment": "Serum vorinostat pharmacokinetics", "type": "in vivo, human", "settings": "for AUC(0-t): AUC0-8 h; for AUC(0-inf): AUC0-inf"}, "Pgp": {"target": "Pgp (Homo sapiens, UniProt P08183)", "sequence (P08183 whole entry)": "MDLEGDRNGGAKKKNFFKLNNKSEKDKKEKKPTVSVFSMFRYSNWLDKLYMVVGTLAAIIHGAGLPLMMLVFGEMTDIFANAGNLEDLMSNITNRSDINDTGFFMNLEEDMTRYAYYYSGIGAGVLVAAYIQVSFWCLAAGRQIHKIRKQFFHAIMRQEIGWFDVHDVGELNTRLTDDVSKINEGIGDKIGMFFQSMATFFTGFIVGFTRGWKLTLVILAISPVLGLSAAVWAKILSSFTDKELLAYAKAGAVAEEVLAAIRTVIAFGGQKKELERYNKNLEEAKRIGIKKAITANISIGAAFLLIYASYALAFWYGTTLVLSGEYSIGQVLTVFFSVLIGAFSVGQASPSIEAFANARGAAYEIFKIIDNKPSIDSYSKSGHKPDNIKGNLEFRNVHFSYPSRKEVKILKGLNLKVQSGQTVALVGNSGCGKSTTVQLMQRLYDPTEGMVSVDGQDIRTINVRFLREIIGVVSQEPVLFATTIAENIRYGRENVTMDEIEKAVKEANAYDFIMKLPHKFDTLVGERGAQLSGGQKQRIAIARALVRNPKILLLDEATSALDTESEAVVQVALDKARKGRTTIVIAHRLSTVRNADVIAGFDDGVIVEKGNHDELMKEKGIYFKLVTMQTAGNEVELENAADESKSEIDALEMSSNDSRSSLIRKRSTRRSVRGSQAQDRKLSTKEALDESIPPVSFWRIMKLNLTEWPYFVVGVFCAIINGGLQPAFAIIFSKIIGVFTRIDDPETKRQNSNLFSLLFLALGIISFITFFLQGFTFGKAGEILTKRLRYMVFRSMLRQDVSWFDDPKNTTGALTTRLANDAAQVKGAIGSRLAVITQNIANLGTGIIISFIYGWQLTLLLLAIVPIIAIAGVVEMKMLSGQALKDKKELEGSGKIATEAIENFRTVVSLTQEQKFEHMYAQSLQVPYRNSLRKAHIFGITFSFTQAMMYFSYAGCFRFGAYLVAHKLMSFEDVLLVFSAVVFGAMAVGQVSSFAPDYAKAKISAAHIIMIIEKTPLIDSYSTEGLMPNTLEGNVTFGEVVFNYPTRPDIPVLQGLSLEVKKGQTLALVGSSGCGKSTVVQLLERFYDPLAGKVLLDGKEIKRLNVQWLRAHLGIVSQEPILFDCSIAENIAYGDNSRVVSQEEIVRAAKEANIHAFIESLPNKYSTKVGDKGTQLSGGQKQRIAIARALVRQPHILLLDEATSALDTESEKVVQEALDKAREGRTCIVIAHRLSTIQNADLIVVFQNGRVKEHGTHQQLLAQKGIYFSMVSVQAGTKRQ", "settings": "paired t test, 6 paired samples"}, "BCRP [7]": {"tested_on": "BCRP", "experiment": "Functional expression of BCRP in patient blasts", "type": "in vivo, human", "settings": "paired t test, 6 paired samples"}, "BCRP (ABCG2)": {"tested_on": "BCRP (ABCG2)", "experiment": "BCRP protein in patient leukemic blasts"}, "Pgp (ABCB1)": {"tested_on": "Pgp (ABCB1)", "settings": "individual patients' blasts on vorinostat; D < 0.15 = no overexpression"}, "[8]": {"settings": "human, serum, oral, 200 mg, Median, N 21"}}, "note": "Values joined by “and” are separate entries in the source; they are usually repeats but may differ in a detail not shown here. Equal entries are not always repeated. Where two headings read alike, the source gives them in different places."}
{"compound": "Nc1ccccc1NC(=O)c1ccc(CNC(=O)OCc2cccnc2)cc1", "note": "[MS-275]", "values": [{"measurement": "clinical responses using classical criteria", "setting": "AML / acute leukemias; phase I study, 38 adults with advanced acute leukemias", "value": "no clinical responses"}]}
{"compound": "CCCC(CCC)C(=O)O", "note": "[valproic acid]", "values": [{"measurement": "response rate", "setting": "AML / acute leukemias; frail or elderly patients with AML, valproic acid alone or in combination with all-trans retinoic acid", "value": 5, "unit": "%"}]}
{"compound": "O=C(CCCCCCC(=O)Nc1ccccc1)NO", "note": "[vorinostat, suberoylanilide hydroxamic acid]", "values": [{"measurement": "interaction between vorinostat and etoposide", "setting": "[1]", "value": "synergy"}, {"measurement": "interaction with anthracyclines and etoposide, in vitro cytotoxicity studies", "setting": "[1]", "value": "additively or synergistically"}, {"measurement": "interaction, concomitant administration of cytarabine and vorinostat", "setting": "[1]", "value": "antagonism"}, {"measurement": "interaction, sequential administration of vorinostat followed by cytarabine", "setting": "[1]", "value": "synergism"}, {"measurement": "concentrations giving significant reduction in the percentage of S-phase cells", "setting": "[1]; within 24 hours after in vitro exposure", "value": "≥ 1", "unit": "µmol/L"}, {"measurement": "Percentage of cells expressing DR5", "setting": "Buccal mucosa cells; Mean, N 4, On vorinostat, Pre mean 26.46, P 0.9316", "value": "25.98 (4)"}, {"measurement": "Percentage of cells expressing DR4", "setting": "Buccal mucosa cells; Mean, N 4, On vorinostat, Pre mean 27.90, P 0.5873", "value": "41.39 (4)"}, {"measurement": "DR4 or DR5 expression, pre vs on vorinostat", "setting": "Buccal mucosa cells; limited samples", "value": "no statistically significant differences"}, {"measurement": "DLTs", "setting": "[2]; DL1, 200 mg vorinostat p.o. twice a day", "value": "No DLTs"}, {"measurement": "DLTs", "setting": "[2]; DL2, 200 mg vorinostat 3 times a day, among 5 dose-escalation-evaluable patients", "value": 2}, {"measurement": "BCRP mRNA expression, on vs pre vorinostat among all patients", "setting": "BCRP [3]", "value": "no significant alteration"}, {"measurement": "DcR1, % Positive cells", "setting": "HL-60/W [4]; 1 μmol/L vorinostat × 24 hours, untreated HL-60/W 23 ± 2", "value": "94.3 ±1.7", "unit": "%"}, {"measurement": "DR5, % Positive cells", "setting": "HL-60/W [4]; 1 μmol/L vorinostat × 24 hours, untreated HL-60/W 47.3 ± 27", "value": "84.2 ± 6.5", "unit": "%"}, {"measurement": "DR4, % Positive cells", "setting": "HL-60/W [4]; 1 μmol/L vorinostat × 24 hours, untreated HL-60/W 55.8 ±14", "value": "73.2 ±15", "unit": "%"}, {"measurement": "DcR2, % Positive cells", "setting": "HL-60/W [4]; 1 μmol/L vorinostat × 24 hours, untreated HL-60/W 56.2 ± 3", "value": "96.3 ±1.1", "unit": "%"}, {"measurement": "DR4, DR5, DcR1, and DcR2 expression", "setting": "HL-60/W [4]; 24-hour exposure to 1 μmol/L vorinostat, P < 0.02, t test", "value": "significantly increases"}, {"measurement": "patients with MDR1 expression increased in the on treatment samples", "setting": "MDR1; 7 of 8 paired samples, 95% CI, 50%–99%", "value": 88, "unit": "%"}, {"measurement": "MDR1 mRNA expression, on vs pre vorinostat among all patients", "setting": "MDR1; paired t test, 8 paired samples", "value": "no significant alteration"}, {"measurement": "Percentage of cells expressing DcR2", "setting": "Leukemia blast cells; Mean, N 11, On vorinostat, Pre mean 15.83, P 0.5279", "value": "17.56 (11)"}, {"measurement": "Percentage of cells expressing DcR1", "setting": "Leukemia blast cells; Mean, N 11, On vorinostat, Pre mean 17.59, P 0.1364", "value": "25.97 (11)"}, {"measurement": "Percentage of cells expressing DR4", "setting": "Leukemia blast cells; Mean, N 14, On vorinostat, Pre mean 12.21, P 0.5498", "value": "13.82 (14)"}, {"measurement": "Percentage of cells expressing DR5", "setting": "Leukemia blast cells; Mean, N 14, On vorinostat, Pre mean 14.75, P 0.3617", "value": "17.68 (14)"}, {"measurement": "DR4, DR5, DcR1, DcR2 expression, pre vs on vorinostat", "setting": "Leukemia blast cells; two-sample paired t test or Wilcoxon signed-rank test", "value": "no significant differences"}, {"measurement": "% G0–G1", "setting": "leukemic blasts; N = 16, On vorinostat (days 4 to 7), Pre mean 83.97, P 0.1519", "value": 87.60, "unit": "%"}, {"measurement": "% G2–M", "setting": "leukemic blasts; N = 16, On vorinostat, Pre mean 3.83, P 0.7556", "value": 3.55, "unit": "%"}, {"measurement": "% sub-G0/G1", "setting": "leukemic blasts; N = 16, On vorinostat, Pre mean 4.29, P 0.0693", "value": 2.60, "unit": "%"}, {"measurement": "%S", "setting": "leukemic blasts; N = 16, On vorinostat, Pre mean 9.22, P 0.2841", "value": 7.17, "unit": "%"}, {"measurement": "% G0–G1", "setting": "buccal mucosal cells; Mean, N= 17, On vorinostat (days 4 to 7), Pre mean 77.99, P 0.5705", "value": 79.85, "unit": "%"}, {"measurement": "% G2–M", "setting": "buccal mucosal cells; Mean, N= 17, On vorinostat, Pre mean 2.14, P 0.2586", "value": 3.26, "unit": "%"}, {"measurement": "%S", "setting": "buccal mucosal cells; Mean, N= 17, On vorinostat, Pre mean 11.49, P 0.9168", "value": 11.30, "unit": "%"}, {"measurement": "% sub-G0–G1", "setting": "buccal mucosal cells; Mean, N= 17, On vorinostat, Pre mean 11.74, P 0.1942", "value": 7.79, "unit": "%"}, {"measurement": "alteration in any cell-cycle phase upon treatment", "setting": "buccal mucosal cells; pre vs on vorinostat, 17 patients", "value": "no statistically significant alteration"}, {"measurement": "TRAIL death and decoy receptor expression", "setting": "HL-60/W [5]", "value": "increased DR4 and DR5 expression, but not DcR1 or DcR2 expression"}, {"measurement": "Cmax", "setting": "[6]; DL2, average", "value": "165.2 ± 64.1", "unit": "ng/mL"}, {"measurement": "Cl/F", "setting": "[6]; Geometric mean, N 20", "value": 277, "unit": "L"}, {"measurement": "Vd/F", "setting": "[6]; Geometric mean, N 20", "value": 829, "unit": "L/h"}, {"measurement": "Cl/F", "setting": "[6]; Mean, N 20, serum, first 200 mg oral dose day 1", "value": 300, "unit": "L"}, {"measurement": "Cmax", "setting": "[6]; Mean, N 21, serum, first 200 mg oral dose day 1", "value": 185, "unit": "ng/mL"}, {"measurement": "Cl/F", "setting": "[6]; Median, N 20", "value": 265, "unit": "L"}, {"measurement": "Vd/F", "setting": "[6]; Median, N 20", "value": 689, "unit": "L/h"}, {"measurement": "t1/2", "setting": "[6]; Median, N 20", "value": 1.7, "unit": "h"}, {"measurement": "AUC(0-t)", "setting": "[6]; human, serum, oral, 200 mg, Geometric mean, N 21", "value": 591, "unit": "ng·h/mL"}, {"measurement": "AUC(0-t)", "setting": "[6]; [8]", "value": 623, "unit": "ng·h/mL"}, {"measurement": "AUC(0-inf)", "setting": "[6]; human, serum, oral, 200 mg, Geometric mean, N 20", "value": 722, "unit": "ng·h/mL"}, {"measurement": "AUC(0-inf)", "setting": "[6]; human, serum, oral, 200 mg, Median, N 20", "value": 757, "unit": "ng·h/mL"}, {"measurement": "Cmax", "setting": "[6]; human, serum, oral, 200 mg, Cmax, 65 years or older age group, average", "value": "203 ± 101", "unit": "ng/mL"}, {"measurement": "Cmax", "setting": "[6]; human, serum, oral, 200 mg, Cmax, DL1, average", "value": "197 ± 90.4", "unit": "ng/mL"}, {"measurement": "Cmax", "setting": "[6]; human, serum, oral, 200 mg, Cmax, less than 65 years of age cohort, average", "value": "174 ± 174", "unit": "ng/mL"}, {"measurement": "Tmax", "setting": "[6]; human, serum, oral, 200 mg, 65 years or older age group, average", "value": "1.6 ± 1.1", "unit": "h"}, {"measurement": "Tmax", "setting": "[6]; human, serum, oral, 200 mg, DL2, average", "value": "3.5 ± 2", "unit": "h"}, {"measurement": "Tmax", "setting": "[6]; [8]", "value": 2, "unit": "h"}, {"measurement": "Tmax", "setting": "[6]; human, serum, oral, 200 mg, less than 65 years of age cohort, average", "value": "3.3 ± 3.3", "unit": "h"}, {"measurement": "half-life", "setting": "[6]; human, serum, po, 200 mg", "value": 2.5, "unit": "h"}, {"measurement": "Tmax", "setting": "[6]; human, serum, po, 200 mg, Mean, N 21, serum, first 200 mg oral dose day 1", "value": 2.6, "unit": "h"}, {"measurement": "Pgp function, on vs pre vorinostat", "setting": "Pgp", "value": "no difference in function"}, {"measurement": "BCRP function, on vs pre vorinostat", "setting": "BCRP [7]", "value": "no difference in function"}, {"measurement": "BCRP Protein, ON (Kolmogorov–Smirnov D value)", "setting": "BCRP (ABCG2); individual patients' blasts on vorinostat, D < 0.15 = no overexpression", "value": "0.05 and 0.15 and 0.19"}, {"measurement": "BCRP protein expression following treatment", "setting": "BCRP (ABCG2); patients 17 and 24", "value": "slight decreases"}, {"measurement": "Pgp Protein, ON (Kolmogorov–Smirnov D value)", "setting": "Pgp (ABCB1)", "value": "0.05 and 0.07 and 0.08"}]}
